Reference: the supplement of paper PMC6045584
± gives the standard deviation of the averaged measurements.

Columns and labels:
[1] = compound: COc1cc2c(cc1O)CC[C@@H]1[C@@H]2CC[C@]2(C)[C@@H](O)CC[C@@H]12 [2-METHOXYESTRADIOL]; assay: surviving fraction relative to DMSO-only wells; higher = less growth inhibition; settings: exposure time: 5 days
How it was run: (§1)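 Viability was scored with CellTiter-Glo luminescence and normalised to the median of DMSO-only wells as surviving fraction. Beforehand, log-phase tumour cell lines were seeded at 250–500 cells per well in 384-well plates, allowed 24 hours, and exposed continuously for five days to inhibitors at 0.5, 1, 5, 10, 50, 100, 500 and 1000 nM. Only lines whose three screens gave replicate Pearson r >0.7 and median Z' >0.3 were kept.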

[2] = compound: CN1CC[C@H](c2c(O)cc(O)c3c(=O)cc(-c4ccccc4Cl)oc23)[C@H](O)C1 [FLAVOPIRIDOL]; assay: as above; settings: exposure time: 5 days
How it was run: as §1

Row | Test System | surviving fraction ([1]; 0.5 nM) | surviving fraction ([1]; 1 nM) | surviving fraction ([1]; 5 nM) | surviving fraction ([1]; 10 nM) | surviving fraction ([1]; 50 nM) | surviving fraction ([1]; 100 nM) | surviving fraction ([1]; 500 nM) | surviving fraction ([1]; 1000 nM) | surviving fraction ([2]; 0.5 nM) | surviving fraction ([2]; 1 nM) | surviving fraction ([2]; 5 nM) | surviving fraction ([2]; 10 nM) | surviving fraction ([2]; 50 nM) | surviving fraction ([2]; 100 nM) | surviving fraction ([2]; 500 nM) | surviving fraction ([2]; 1000 nM)
1 | SIHA CERVIX | 0.869 ± 0.011 | 0.902 ± 0.085 | 0.952 ± 0.092 | 0.979 ± 0.057 | 0.973 ± 0.047 | 1.02 ± 0.057 | 0.719 ± 0.062 | 0.611 ± 0.072 | 1.07 ± 0.041 | 1.05 ± 0.067 | 1.1 ± 0.081 | 1.03 ± 0.032 | 0.714 ± 0.045 | 0.336 ± 0.056 | 0.0243 ± 0.0015 | 0.023 ± 0.001
2 | SJSA1 BONE | 0.941 ± 0.086 | 1.68 ± 0.14 | 1.73 ± 0.12 | 1.72 ± 0.037 | 1.75 ± 0.13 | 1.77 ± 0.08 | 1.67 ± 0.043 | 1.78 ± 0.08 | 0.135 ± 0.0078 | 0.272 ± 0.042 | 1.71 ± 0.2 | 0.209 ± 0.011 | 0.0583 ± 0.0059 | 1.74 ± 0.06 | 1.64 ± 0.076 | 0.776 ± 0.074
3 | SKBR3 BREAST | 0.913 ± 0.033 | 0.924 ± 0.16 | 1.09 ± 0.065 | 0.956 ± 0.12 | 0.986 ± 0.079 | 0.986 ± 0.056 | 0.882 ± 0.099 | 0.548 ± 0.051 | 1.15 ± 0.074 | 1.0877 ± 0.00058 | 1.05 ± 0.022 | 1.06 ± 0.092 | 0.541 ± 0.051 | 0.207 ± 0.035 | 0.032 ± 0.015 | 0.0233 ± 0.0031
4 | SNU475 LIVER | 0.989 ± 0.048 | 1.01 ± 0.032 | 0.967 ± 0.026 | 0.968 ± 0.06 | 1.02 ± 0.053 | 0.997 ± 0.059 | 0.956 ± 0.057 | 0.775 ± 0.051 | 1.05 ± 0.041 | 1 ± 0.032 | 1.09 ± 0.015 | 1.07 ± 0.072 | 1.02 ± 0.026 | 0.438 ± 0.048 | 0.0423 ± 0.0046 | 0.0407 ± 0.0029
5 | SUM44 BREAST | 1.14 ± 0.32 | 1.15 ± 0.3 | 1.14 ± 0.23 | 1.12 ± 0.2 | 1.3 ± 0.4 | 1.21 ± 0.33 | 0.837 ± 0.091 | 0.53 ± 0.054 | 1.14 ± 0.35 | 1.17 ± 0.16 | 1.22 ± 0.23 | 1.22 ± 0.27 | 1.08 ± 0.24 | 0.283 ± 0.012 | 0.119 ± 0.039 | 0.104 ± 0.036
6 | SUM149 BREAST | 0.984 ± 0.04 | 0.997 ± 0.052 | 1.07 ± 0.072 | 0.955 ± 0.025 | 1 ± 0.052 | 0.934 ± 0.065 | 0.442 ± 0.052 | 0.133 ± 0.022 | 0.955 ± 0.031 | 1.07 ± 0.051 | 1.06 ± 0.033 | 1.06 ± 0.087 | 0.681 ± 0.027 | 0.0783 ± 0.029 | 0.018 ± 0.0027 | 0.0183 ± 0.0032
7 | SUM149.B1*.S BREAST | 1.04 ± 0.011 | 1.02 ± 0.046 | 1.02 ± 0.025 | 1.02 ± 0.04 | 1.06 ± 0.025 | 1.08 ± 0.019 | 0.968 ± 0.015 | 0.628 ± 0.036 | 1.1 ± 0.047 | 1.09 ± 0.024 | 1.08 ± 0.063 | 1.044 ± 0.0039 | 1 ± 0.037 | 0.459 ± 0.06 | 0.0462 ± 0.0049 | 0.0412 ± 0.0016
8 | SUM159 BREAST | 1.02 ± 0.028 | 1.02 ± 0.028 | 1.01 ± 0.027 | 1.02 ± 0.022 | 1.02 ± 0.023 | 1.04 ± 0.021 | 0.9593 ± 0.0093 | 0.562 ± 0.074 | 1.08 ± 0.024 | 1.08 ± 0.021 | 1.09 ± 0.014 | 1.049 ± 0.0055 | 1.08 ± 0.026 | 0.44 ± 0.082 | 0.0913 ± 0.0097 | 0.0957 ± 0.0072
